Results from patent US20090099140A1, “20-Alkyl, Gemini Vitamin D3 Compounds and Methods of Use Thereof” (BioXell S.p.A., priority 2005, published 2009).
Like-named read-outs stand apart in the source and are kept apart here.

Legend:
[1] = Determination of maximum tolerated dose (MTD), highest oral dose without hypercalcemia (serum calcium); type: in vivo; conditions: in vivo, po
Method: The maximum tolerated dose of the vitamin D3 compounds of the invention were determined in eight week-old female C57BL/6 mice (3 mice/group) dosed orally (0.1 ml/mouse) with various concentrations of Vitamin D3 analogs daily for four days. Analogs were formulated in miglyol for a final concentration of 10, 30, 100 and 300 μg/kg when given at 0.1 ml/mouse p.o. daily. Blood for serum calcium assay was drawn by tail bleed on day five, the final day of the study. Serum calcium levels were determined using a colorimetric assay (Sigma Diagnostics, procedure no. 597). The highest dose of analog tolerated without inducing hypercalcemia (serum calcium >10.7 mg/dl) was taken as the maximum tolerated does (MTD).

IFN-γ production = IFN-γ production by allogeneic T cell activation in the mixed leukocyte response (MLR); type: cell-based; conditions: MLR of allogeneic PBMC from 2 different donors, 5 days, IFN-γ by ELISA, 50% inhibition of IFN-γ production
Method: Immature dendritic cells (DC) were prepared as described in Romani, N. et al., J. Immunol. Meth. 196:137. IFN-γ production by allogeneic T cell activation in the mixed leukocyte response (MLR) was determined as described in Penna, G., et al., J. Immunol., 164: 2405-2411 (2000).
Briefly, peripheral blood mononuclear cells (PBMC) were separated from buffy coats by Ficoll gradient and the same number (3×105) of allogeneic PBMC from 2 different donors were co-cultured in 96-well flat-bottom plates. After 5 days, IFN-γ production in the MLR assay was measured by ELISA and the results expressed as amount (nM) of test compound required to induce 50% inhibition of IFN-γ production (IC50) (Table 1).

[2] = mouse, eight week-old female C57BL/6 mice, p.o. daily for four days in miglyol, highest dose without hypercalcemia (serum calcium >10.7 mg/dl) on day five, read-out: MTD (mice)

Compound: C=C1/C(=C\C=C2/CCC[C@@]3(C)C2CC[C@@H]3C(C)(CCCC(C)(C)O)CCCC(C)(C)O)CC(O)C[C@@H]1O (some centres unmarked) [Compound 1, 1,25-Dihydroxy-20-(4-hydroxy-4-methyl-pentyl)cholecalciferol]
- MTD at 4 days [1, 2]: 3 µg/kg
- IC50 (IFN-γ production; 120 h): 0.518 nM

Compound: CC(C)(O)CCCC(C)(CCCC(C)(C)O)[C@H]1CCC2/C(=C/C=C3/CC(O)C[C@H](O)C3)CCC[C@@]21C (some centres unmarked) [Compound 2, 1,25-Dihydroxy-20-(4-hydroxy-4-methyl-pentyl)-19-nor-cholecalciferol]
- MTD at 4 days [1, 2]: < 30 µg/kg
- IC50 (IFN-γ production; 120 h): 0.744 nM

Compound: C=C1/C(=C\C=C2/CCC[C@@]3(C)C2CC[C@@H]3C(C)(CCCC(C)(C)O)CCCC(C)(C)O)CC(O)C[C@@H]1F (stereo partly drawn) [Compound 3, 1α-Fluoro-25-hydroxy-20-(4-hydroxy-4-methyl-pentyl)-cholecalciferol]
- MTD at 4 days ([1]; female, C57BL/6, mouse): > 300 µg/kg
- IC50 (IFN-γ production; 120 h): 6.27 nM

Compound: C=C1/C(=C\C=C2/CCC[C@@]3(C)C2CC[C@@H]3[C@](C)(CC#CC(O)(C(F)(F)F)C(F)(F)F)CCCC(C)(C)O)CC(O)C[C@@H]1O (stereo partly drawn) [Compound 4, (20S)-1,25-Dihydroxy-20-(5,5,5-trifluoro-4-hydroxy-4-trifluoromethyl-pent-2-ynyl)cholecalciferol]
- MTD at 4 days [1, 2]: 0.3 µg/kg
- IC50 (IFN-γ production; 120 h): 0.049 nM

Compound: C=C1/C(=C\C=C2/CCC[C@@]3(C)C2CC[C@@H]3[C@](C)(C/C=C\C(O)(C(F)(F)F)C(F)(F)F)CCCC(C)(C)O)CC(O)C[C@@H]1O (stereo partly drawn) [Compound 5, (20S)-1,25-Dihydroxy-20-(5,5,5-trifluoro-4-hydroxy-4-trifluoromethyl-pent-(2Z)-enyl)cholecalciferol]
- MTD at 4 days [1, 2]: 0.3 µg/kg
- IC50 (IFN-γ production; 120 h): 0.042 nM

Compound: C=C1/C(=C\C=C2/CCC[C@@]3(C)C2CC[C@@H]3[C@@](C)(CC#CC(O)(C(F)(F)F)C(F)(F)F)CCCC(C)(C)O)C[C@@H](O)C[C@@H]1O (stereo partly drawn) [Compound 7, (20R)-1,25-Dihydroxy-20-(5,5,5-trifluoro-4-hydroxy-4-trifluoromethyl-pent-2-ynyl)-cholecalciferol]
- IC50 (IFN-γ production; 120 h): 0.038 nM

Compound: C=C1/C(=C\C=C2/CCC[C@@]3(C)C2CC[C@@H]3[C@@](C)(C/C=C\C(O)(C(F)(F)F)C(F)(F)F)CCCC(C)(C)O)C[C@@H](O)C[C@@H]1O (stereo partly drawn) [Compound 8, (20R)-1,25-Dihydroxy-20-[(2Z)-5,5,5-trifluoro-4-hydroxy-4-trifluoromethyl-pent-2-enyl]-cholecalciferol]
- MTD at 4 days [1, 2]: 0.3 µg/kg
- IC50 (IFN-γ production; 120 h): 0.057 nM

Compound: C=C1/C(=C\C=C2/CCC[C@@]3(C)C2CC[C@@H]3[C@@](C)(C/C=C/C(O)(C(F)(F)F)C(F)(F)F)CCCC(C)(C)O)C[C@@H](O)C[C@@H]1O (stereo partly drawn) [Compound 9, (20R)-1,25-Dihydroxy-20-[(2E)-5,5,5-trifluoro-4-hydroxy-4-trifluoromethyl-pent-2-enyl]-cholecalciferol]
- MTD at 4 days [1, 2]: 0.1 µg/kg
- IC50 (IFN-γ production; 120 h): 0.049 nM

Compound: CC(C)(O)CCC[C@@](C)(CC#CC(O)(C(F)(F)F)C(F)(F)F)[C@H]1CCC2/C(=C/C=C3/CC(O)C[C@H](O)C3)CCC[C@@]21C (stereo partly drawn) [Compound 10, (20S)-1,25-Dihydroxy-20-(5,5,5-trifluoro-4-hydroxy-4-trifluoromethyl-pent-2-ynyl)-19-nor-cholecalciferol]
- MTD at 4 days [1, 2]: 0.3 µg/kg
- IC50 (IFN-γ production; 120 h): 0.0436 nM

Compound: CC(C)(O)CCC[C@@](C)(C/C=C\C(O)(C(F)(F)F)C(F)(F)F)[C@H]1CCC2/C(=C/C=C3/CC(O)C[C@H](O)C3)CCC[C@@]21C (stereo partly drawn) [Compound 11, (20S)-1,25-Dihydroxy-20-[(2Z)-5,5,5-trifluoro-4-hydroxy-4-trifluoromethyl-pent-2-enyl]-19-nor-cholecalciferol]
- MTD at 4 days [1, 2]: 3 µg/kg
- IC50 (IFN-γ production; 120 h): 0.253 nM

Compound: [2H]C([2H])([2H])C(O)(CCCC(C)(C/C=C/C(O)(C(F)(F)F)C(F)(F)F)[C@H]1CCC2/C(=C/C=C3/C[C@@H](O)C[C@H](O)C3=C)CCC[C@@]21C)C([2H])([2H])[2H] (stereo partly drawn) [Compound 19, 1,25-Dihydroxy-20S-20-(4-hydroxy-5,5,5-trideutero-4-trideuteromethyl-pentyl)-23E-ene-26,27-hexafluorocholecalciferol]
- MTD at 4 days [1, 2]: 0.1 µg/kg

Compound: [2H]C([2H])([2H])C(O)(CCCC(C)(C/C=C/C(O)(C(F)(F)F)C(F)(F)F)[C@H]1CCC2/C(=C/C=C3C[C@@H](O)C[C@H](O)C3)CCC[C@@]21C)C([2H])([2H])[2H] (stereo partly drawn) [Compound 20, 1,25-Dihydroxy-20S-20-(4-hydroxy-5,5,5-trideutero-4-trideuteromethyl-pentyl)-23E-ene-26,27-hexafluoro-19-nor-cholecalciferol]
- MTD at 4 days [1, 2]: 0.1 µg/kg

Compound: [2H]C([2H])([2H])C(O)(CCCC(C)(CC#CC(O)(C(F)(F)F)C(F)(F)F)[C@H]1CCC2/C(=C/C=C3/C[C@@H](O)C[C@H](O)C3=C)CCC[C@@]21C)C([2H])([2H])[2H] (stereo partly drawn) [Compound 22, 1,25-Dihydroxy-20S-20-(4-hydroxy-5,5,5-trideutero-4-trideuteromethyl-pentyl)-23-yne-26,27-hexafluorocholecalciferol]
- MTD at 4 days [1, 2]: 0.3 µg/kg

Compound: [2H]C([2H])([2H])C(O)(CCCC(C)(CC#CC(O)(C(F)(F)F)C(F)(F)F)[C@H]1CCC2/C(=C/C=C3C[C@@H](O)C[C@H](O)C3)CCC[C@@]21C)C([2H])([2H])[2H] (stereo partly drawn) [Compound 23, 1,25-Dihydroxy-20S-20-(4-hydroxy-5,5,5-trideutero-4-trideuteromethyl-pentyl)-23-yne-26,27-hexafluoro-19-nor-cholecalciferol]
- MTD at 4 days [1, 2]: 1 µg/kg

Compound: [2H]C([2H])([2H])C(O)(CCC[C@](C)(C/C=C\C(O)(C(F)(F)F)C(F)(F)F)[C@H]1CCC2/C(=C/C=C3C[C@@H](O)C[C@H](O)C3)CCC[C@@]21C)C([2H])([2H])[2H] (stereo partly drawn) [Compound 26, 1,25-Dihydroxy-20R-20-(4-hydroxy-5,5,5-trideutero-4-trideuteromethyl-pentyl)-23Z-ene-26,27-hexafluoro-19-nor-cholecalciferol]
- MTD at 4 days [1, 2]: 0.3 µg/kg

Compound: [2H]C([2H])([2H])C(O)(CCC[C@](C)(C/C=C\C(O)(C(F)(F)F)C(F)(F)F)[C@H]1CCC2/C(=C/C=C3/C[C@@H](O)C[C@H](F)C3=C)CCC[C@@]21C)C([2H])([2H])[2H] (stereo partly drawn) [Compound 27, 1α-Fluoro-25-hydroxy-20R-20-(4-hydroxy-5,5,5-trideutero-4-trideuteromethyl-pentyl)-23Z-ene-26,27-hexafluorocholecalciferol]
- IC50 (IFN-γ production; 120 h): 0.307 nM

Compound: [2H]C([2H])([2H])C(O)(CCC[C@](C)(C/C=C/C(O)(C(F)(F)F)C(F)(F)F)[C@H]1CCC2/C(=C/C=C3/C[C@@H](O)C[C@H](O)C3=C)CCC[C@@]21C)C([2H])([2H])[2H] (stereo partly drawn) [Compound 28, 1,25-Dihydroxy-20R-20-(4-hydroxy-5,5,5-trideutero-4-trideuteromethyl-pentyl)-23E-ene-26,27-hexafluorocholecalciferol]
- MTD at 4 days [1, 2]: 0.3 µg/kg

Compound: [2H]C([2H])([2H])C(O)(CCC[C@](C)(C/C=C/C(O)(C(F)(F)F)C(F)(F)F)[C@H]1CCC2/C(=C/C=C3C[C@@H](O)C[C@H](O)C3)CCC[C@@]21C)C([2H])([2H])[2H] (stereo partly drawn) [Compound 29, 1,25-Dihydroxy-20R-20-(4-hydroxy-5,5,5-trideutero-4-trideuteromethyl-pentyl)-23E-ene-26,27-hexafluoro-19-nor-cholecalciferol]
- MTD at 4 days [1, 2]: 0.1 µg/kg

Compound: [2H]C([2H])([2H])C(O)(CCC[C@](C)(C/C=C/C(O)(C(F)(F)F)C(F)(F)F)[C@H]1CCC2/C(=C/C=C3/C[C@@H](O)C[C@H](F)C3=C)CCC[C@@]21C)C([2H])([2H])[2H] (stereo partly drawn) [Compound 30, 1α-Fluoro-25-hydroxy-20R-20-(4-hydroxy-5,5,5-trideutero-4-trideuteromethyl-pentyl)-23E-ene-26,27-hexafluorocholecalciferol]
- IC50 (IFN-γ production; 120 h): 0.012 nM

Compound: [2H]C([2H])([2H])C(O)(CCC[C@](C)(CC#CC(O)(C(F)(F)F)C(F)(F)F)[C@H]1CCC2/C(=C/C=C3/C[C@@H](O)C[C@H](O)C3=C)CCC[C@@]21C)C([2H])([2H])[2H] (stereo partly drawn) [Compound 31, 1,25-Dihydroxy-20R-20-(4-hydroxy-5,5,5-trideutero-4-trideuteromethyl-pentyl)-23-yne-26,27-hexafluorocholecalciferol]
- MTD at 4 days [1, 2]: 0.3 µg/kg

Compound: [2H]C([2H])([2H])C(O)(CCC[C@](C)(CC#CC(O)(C(F)(F)F)C(F)(F)F)[C@H]1CCC2/C(=C/C=C3C[C@@H](O)C[C@H](O)C3)CCC[C@@]21C)C([2H])([2H])[2H] (stereo partly drawn) [Compound 32, 1,25-Dihydroxy-20R-20-(4-hydroxy-5,5,5-trideutero-4-trideuteromethyl-pentyl)-23-yne-26,27-hexafluoro-19-nor-cholecalciferol]
- MTD at 4 days [1, 2]: 0.3 µg/kg

Compound: [2H]C([2H])([2H])C(O)(CCC[C@](C)(CC#CC(O)(C(F)(F)F)C(F)(F)F)[C@H]1CCC2/C(=C/C=C3/C[C@@H](O)C[C@H](F)C3=C)CCC[C@@]21C)C([2H])([2H])[2H] (stereo partly drawn) [Compound 33, 1α-Fluoro-25-hydroxy-20R-20-(4-hydroxy-5,5,5-trideutero-4-trideuteromethyl-pentyl)-23-yne-26,27-hexafluorocholecalciferol]
- IC50 (IFN-γ production; 120 h): 0.0132 nM

Compound: (20S)-1,25-Dihydroxy-20-[(2E)-5,5,5-trifluoro-4-hydroxy-4-trifluoromethyl-pent-2-enyl]-cholecalciferol [Compound 6]
- IC50 (IFN-γ production): 0.044 nM
